In paper PMC5641094, “A peptide antagonist of Prep1-p160 interaction improves ceramide-induced insulin resistance in skeletal muscle cells” (Oncotarget, 2017):
Like-named read-outs stand apart in the source and are kept apart here.

Columns and labels:
p160 mRNA = assay: Real-time RT-PCR of p160 mRNA in L6 cells; format: cell-based, rat; settings: C2cer 10μM, 18h, normalized to GAPDH
Experimental: Figure 2 Effect of ceramides on Prep1 and p160 mRNA expression and of Prep1-p160 coprecipitation L6 cells were treated with C2cer (10μM) for 18h and Prep1 (A) or p160 (B) mRNA levels were analyzed by real-time RT-PCR analysis. Data were normalized by the amount of GAPDH mRNA, used as internal control. Bars represent the mean ± SD of three independent experiments, each performed in triplicate. (C) L6 cells were treated with cycloheximide (CHX) at 40μg/mL concentration for 18h and the lysates were analyzed by Western blot with anti-p160 and beta-actin. The autoradiograph shown is representative of three different experiments and subjected to densitometric analysis. (D) Protein lysates from L6 cells treated with C2cer as indicated, were immunoprecipitated with Prep1 antibody and immunoblotted with p160 or Prep1 antibodies. The autoradiograph shown is representative of three different experiments and subjected to densitometric analysis. Asterisks denote statistically significant differences (*p<0.05; **p<0.01).
Total cellular RNA was isolated from L6 cells by using the RNeasy kit (QIAGEN Sciences, Germany), according to manufacturer instructions. 1μg of cell RNA was reverse-transcribed using Superscript III Reverse Transcriptase (Life Technologies Carlsbad, CA, USA). PCR reactions were analyzed using IQTM SYBR Green Supermix (Bio-Rad, Hercules, CA). […]

[1] = target: T1, p160_20-160/Prep1_45-155 binding (Homo sapiens, UniProt Q9BQG0); assay: ELISA-like competition of p160_20-160/Prep1_45-155 binding
T1 construct: pre-incubating the His6-tagged-p160_20-160 at 0.25μM with peptides; made in house
T1 sequence (Q9BQG0 20-160): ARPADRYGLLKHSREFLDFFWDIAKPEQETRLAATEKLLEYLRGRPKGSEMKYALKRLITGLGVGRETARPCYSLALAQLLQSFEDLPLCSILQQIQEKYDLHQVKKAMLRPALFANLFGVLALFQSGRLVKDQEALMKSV
Excerpt: To address the significance of the association between Prep1 and p160 mediated by C2cer, we generated a synthetic inhibitor of the Prep1/p160 interaction. […] The synthetic peptide covering such stretch of residues was therefore chosen to generate a potential inhibitor. […] Thus, we designed and chemically synthesized a peptide spanning residues 59-72, hereafter Prep1(59-72), which comprises the predicted α-helix and a short loop at the N-terminus (Supplementary Figure 2A, upper panel). We also designed and prepared an additional peptide with a slightly longer N-terminal end, named Prep1(54-72) (Supplementary Figure 2A, lower panel), to increase the probability of obtaining a molecule with helical features. […] In order to test the affinity of Prep1 synthetic peptides to p160 protein, ELISA-like experiments were developed where N-terminally biotinylated peptide variants were added to p160_20-160 – coated 96-well plates. As shown in Figure 3A either variants bound p160_20-160 domain in a dose-dependent and saturable manner. […]
Figure 3 Design and in vitro effects of Prep1(54-72) peptide on Prep1/p160 association (A) Binding curves of Prep1(59-72) and Prep1(54-72) peptides to p160_20-160 by ELISA-like assays. […] (C) L6 cells were incubated with increasing concentrations of the fluorescein-conjugated peptide (FITC-Prep1(54-72)) and peptide uptake was detected by FACS analysis of fluorescein-labeled cells. […] Protein lysates were immunoprecipitated with Prep1 antibodies and analyzed by Western blot using antibodies for p160 or for Prep1. […] The blots were detected by ECL and autoradiography. […]
ELISA experiments were performed using an integrated platform for High-Throughput Screening (Hamilton Robotics, Bonaduz, CH) comprising a fully equipped Starlet 8 channel liquid handler, a robotic arm, a washer and a multi-wavelength plate reader. […] In particular, several concentrations of biotinylated peptides at several concentrations were added to a plate coated with p160_20-160 (0.1μM) and binding was detected with streptavidin-HRP. […] The binding was detected by anti-His HRP-conjugated antibody. […]

Compound	effect on p160 mRNA levels (p160 mRNA)	IC50 ([1]; His6-p160_20-160 0.25μM pre-incubated with peptide 0.001-10μM, plate coated with Prep1_45-155 (0.10μM), anti-His HRP, average of three experiments, read-out: IC50, inhibition of p160_20-160/Prep1_45-155 binding) [nM]	IC50 ([1]; as restated in the discussion, read-out: IC50, potency in vitro as complex inhibitor) [nM]
CCCCCCCCCCCCC/C=C/[C@@H](O)[C@H](CO)NC(C)=O [C2cer, D-erythro-Sphingosine, N-Acetyl-, reference compound]	not affected	–	–
Ac-KQAIYRHPLFPLLALLFEK-NH2 [Prep1(54-72)]	–	200	~200
